Results reported in patent publication US20240016781A1, “TREATMENT OF KRAS MUTANT CANCERS” (MEI Pharma, Inc., priority 2020, published 2024).
Like-named read-outs stand apart in the source and are kept apart here.

Columns and labels:
NCI-H358 cells = assay: 2D culture dose response; format: cell-based; conditions: Homo sapiens
[1] = PK of voruciclib, daily dosing continuously (Table 4); format: in vivo; conditions: human, plasma, oral; for Vd/F: read-out: Vz/F; for half-life: read-out: t½ (converted); for Tmax: median
Source text: Voruciclib half life is designated as t½ in the tables (expressed in hours).
Voruciclib volume of distribution is designated as Vz/F (expressed in liters).

Solid Tumors = assay: Monotherapy Phase 1 study in solid tumors, daily continuously schedule; format: in vivo, human
[2] = test system: Relapsed/Refractory B-cell malignancies; Relapsed/Refractory AML; assay: Phase 1 study in R/R B-cell malignancies and AML; format: in vivo, human
Procedure: Study population: Relapsed/Refractory B-cell malignancies; Relapsed/Refractory AML; Dose escalation with standard 3+3 design.
Endpoints: Safety and tolerability, Pharmacokinetics, Biologic correlative studies (BH3 profiling, MCL-1 expression, molecular mutations analysis), Response rates.
Voruciclib single agent dose escalation: 50 mg>100 mg>150 mg>200 mg.
Differentiation syndrome seen in 5 pts (50%) (Increased WBC without increased in blasts, bone pain, pulmonary symptoms; Response to corticosteroids).

MYC protein in AML cells = conditions: 3 hr; cited from earlier work
[3] = 75 mg, Day 1, daily dosing continuously, mean
[4] = 75 mg, Day 15, daily dosing continuously, mean
[5] = 150 mg, Day 1, daily dosing continuously, mean
[6] = 150 mg, Day 15, daily dosing continuously, n = 1
[7] = 250 mg, Day 1, daily dosing continuously, mean
[8] = 250 mg, Day 15, daily dosing continuously, mean
[9] = 350 mg, Day 1, daily dosing continuously, mean
[10] = 350 mg, Day 15, daily dosing continuously, mean
[11] = 500 mg, Day 1, daily dosing continuously, mean
[12] = 500 mg, Day 15, daily dosing continuously, mean
[13] = Daily continuously schedule, 75 to 500 mg, 39 pts

SMILES: CN1CC[C@@H](c2c(O)cc(O)c3c(=O)cc(-c4ccc(C(F)(F)F)cc4Cl)oc23)[C@@H]1CO [Voruciclib, (+)-trans-2-(2-Chloro-4-trifluoromethylphenyl)-5,7-dihydroxy-8-(2-hydroxymethyl-1-methylpyrrolidin-3-yl)-chromen-4-one]
- IC50 (NCI-H358 cells): 0.6 µM
- AUC(0-inf) [1, 3]: 3420 ng·h/mL
- Cmax [1, 3]: 125 ng/mL
- AUC(0-t) ([1]; 75 mg, Day 1, daily dosing continuously, mean, read-out: AUC0-24): 1730 ng·h/mL
- AUC(0-t) ([1]; 75 mg, Day 1, daily dosing continuously, mean, read-out: AUC0-t): 1730 ng·h/mL
- Vd/F [1, 3]: 860 L
- half-life [1, 3]: 21.8 h
- Tmax ([1]; 75 mg, Day 1, daily dosing continuously): 4 h
- AUC(0-inf) [1, 4]: 27200 ng·h/mL
- Cmax [1, 4]: 331 ng/mL
- AUC(0-t) ([1]; 75 mg, Day 15, daily dosing continuously, mean, read-out: AUC0-24): 5570 ng·h/mL
- AUC(0-t) ([1]; 75 mg, Day 15, daily dosing continuously, mean, read-out: AUC0-t): 5570 ng·h/mL
- Vd/F [1, 4]: 982 L
- half-life [1, 4]: 359 h
- Tmax ([1]; 75 mg, Day 15, daily dosing continuously): 2 h
- AUC(0-inf) [1, 5]: 15600 ng·h/mL
- Cmax [1, 5]: 258 ng/mL
- AUC(0-t) ([1]; 150 mg, Day 1, daily dosing continuously, mean, read-out: AUC0-24): 4850 ng·h/mL
- AUC(0-t) ([1]; 150 mg, Day 1, daily dosing continuously, mean, read-out: AUC0-t): 4850 ng·h/mL
- Vd/F [1, 5]: 579 L
- half-life [1, 5]: 39.6 h
- Tmax ([1]; 150 mg, Day 1, daily dosing continuously): 6 h
- Cmax ([1]; 150 mg, Day 15, daily dosing continuously, mean): 755 ng/mL
- AUC(0-t) ([1]; 150 mg, Day 15, daily dosing continuously, mean, read-out: AUC0-24): 16600 ng·h/mL
- AUC(0-t) ([1]; 150 mg, Day 15, daily dosing continuously, mean, read-out: AUC0-t): 16600 ng·h/mL
- Tmax ([1]; 150 mg, Day 15, daily dosing continuously): 6 h
- AUC(0-inf) [1, 6]: 164000 ng·h/mL
- Vd/F [1, 6]: 174 L
- half-life [1, 6]: 132 h
- AUC(0-inf) [1, 7]: 16400 ng·h/mL
- Cmax [1, 7]: 472 ng/mL
- AUC(0-t) ([1]; 250 mg, Day 1, daily dosing continuously, mean, read-out: AUC0-24): 6110 ng·h/mL
- AUC(0-t) ([1]; 250 mg, Day 1, daily dosing continuously, mean, read-out: AUC0-t): 6110 ng·h/mL
- Vd/F [1, 7]: 766 L
- half-life [1, 7]: 34.4 h
- Tmax ([1]; 250 mg, Day 1, daily dosing continuously): 4 h
- AUC(0-inf) [1, 8]: 54500 ng·h/mL
- Cmax [1, 8]: 1050 ng/mL
- AUC(0-t) ([1]; 250 mg, Day 15, daily dosing continuously, mean, read-out: AUC0-24): 18500 ng·h/mL
- AUC(0-t) ([1]; 250 mg, Day 15, daily dosing continuously, mean, read-out: AUC0-t): 18500 ng·h/mL
- Vd/F [1, 8]: 259 L
- half-life [1, 8]: 38.8 h
- Tmax ([1]; 250 mg, Day 15, daily dosing continuously): 4 h
- AUC(0-inf) [1, 9]: 134000 ng·h/mL
- Cmax [1, 9]: 623 ng/mL
- AUC(0-t) ([1]; 350 mg, Day 1, daily dosing continuously, mean, read-out: AUC0-24): 10400 ng·h/mL
- AUC(0-t) ([1]; 350 mg, Day 1, daily dosing continuously, mean, read-out: AUC0-t): 10400 ng·h/mL
- Vd/F [1, 9]: 155 L
- half-life [1, 9]: 129 h
- Tmax ([1]; 350 mg, Day 1, daily dosing continuously): 6 h
- AUC(0-inf) [1, 10]: 164000 ng·h/mL
- Cmax [1, 10]: 1490 ng/mL
- AUC(0-t) ([1]; 350 mg, Day 15, daily dosing continuously, mean, read-out: AUC0-24): 26700 ng·h/mL
- AUC(0-t) ([1]; 350 mg, Day 15, daily dosing continuously, mean, read-out: AUC0-t): 26700 ng·h/mL
- Vd/F [1, 10]: 77.6 L
- half-life [1, 10]: 72.5 h
- Tmax ([1]; 350 mg, Day 15, daily dosing continuously): 4 h
- AUC(0-inf) [1, 11]: 41000 ng·h/mL
- Cmax [1, 11]: 1140 ng/mL
- AUC(0-t) ([1]; 500 mg, Day 1, daily dosing continuously, mean, read-out: AUC0-24): 16400 ng·h/mL
- AUC(0-t) ([1]; 500 mg, Day 1, daily dosing continuously, mean, read-out: AUC0-t): 16400 ng·h/mL
- Vd/F [1, 11]: 72.5 L
- half-life [1, 11]: 24.8 h
- Tmax ([1]; 500 mg, Day 1, daily dosing continuously): 6 h
- AUC(0-inf) [1, 12]: 108000 ng·h/mL
- Cmax [1, 12]: 2250 ng/mL
- AUC(0-t) ([1]; 500 mg, Day 15, daily dosing continuously, mean, read-out: AUC0-24): 40500 ng·h/mL
- AUC(0-t) ([1]; 500 mg, Day 15, daily dosing continuously, mean, read-out: AUC0-t): 40500 ng·h/mL
- Vd/F [1, 12]: 51 L
- half-life [1, 12]: 42.4 h
- Tmax ([1]; 500 mg, Day 15, daily dosing continuously): 2 h
- best response (Solid Tumors; [13]): 12 SD lasting a median of 15 weeks
- disease control rate (Solid Tumors; [13]): 31%
- patients with decreased c-MYC expression (Solid Tumors; Phase 1 daily dosing study, 17/25 patients tested): 68%
- GI toxicity or neutropenia ([2]; 24 pts in 3 dose levels, 10 AML and 14 B-cell malignancies): No GI toxicity or neutropenia at doses studied
- patients with differentiation syndrome ([2]; AML): 50%
- MYC protein (MYC protein in AML cells): decrease in MYC protein
